Measured values from patent US11802107B2, “Compounds and methods of use” (Signum Biosciences, Inc., priority 2017, dated 2023).
≈ marks a conversion by molar mass, not a printed value. Counter-ions that a name gives are not always drawn. Like-named read-outs stand apart in the source and are kept apart here.

Assays:
P. acnes (ATCC 6919) [1] = experiment: Minimal inhibitory concentration (MIC) against P. acnes; type: cell-based, Propionibacterium acnes; conditions: P. acnes ATCC 6919, 10^6 CFU/mL
Description: To determine minimal inhibitory concentration (MIC), reagents were dissolved in vehicle (5% v/v) and then added to bacteria suspension. P. acnes (ATCC® 6919TM) at 10^6 CFU/mL was incubated with test materials at the concentrations of two-fold serial dilution (0.25-500 μg/mL) and incubated for 72 hours (P. acnes).

Balb/C mice = experiment: Oxazolone-induced delayed-type hypersensitivity (DTH) in vivo model; conditions: Mus musculus, topical to ears @ 3% w/v, 24 hours, read-out: Edema % inhibition
Description: Inbred male Balb/C mice were purchased from Hilltop Lab Animals (Scottdale, PA) and were used between 8 and 10 weeks of age. Mice backs were shaved and 100 μl of 3% v/v Oxazolone (Sigma Aldrich, Cat No. E0753) in acetone/olive oil (4:1) was applied to dorsal skin for sensitization. On Day 7, ears were challenged with 0.5% v/v Oxazolone and 30 minutes after challenge, test materials at 3% w/v were applied to ears (10 μl applied both to the dorsal and ventral surfaces of the mouse ear using a solvent pipette) and 24 hours later, skin thickness (edema) was measured. A 6-mm punch biopsy was obtained from each ear, snap frozen in liquid nitrogen. Ear skin biopsy punches were pulverized using FastPrep®-24 Biopulverizer (MP Biomedical, CatNo. 116004500) and Lysing Matrix A tubes (CatNo. 16910050). Protein extracts were obtained using 500 μL/tissue of cold T-PER buffer (ThermoFisher, CatNo. 78510) with Protease inhibitors (Sigma-Aldich, CatNo. 58820-20TAB). Soluble protein fractions were used to measure cytokine levels (IL-4) using ELISA kit (BD Biosciences® #555232). Results were represented as percent of inhibition relative to unsensitized and sensitized-only treated animals. Vehicle for presently disclosed compounds was 60:40 H2O:EtOH and 1:1 Acetone:EtOH for AN2718. (n=5-15 animals per treatment group).
Compound C was further analyzed at various dosages against 0.4 mg/ear of […] by the above protocol, data representing the average±S.E. of cumulative data from three independent experiments (n=12-15 mice per group) is shown below: […]

P. acnes (ATCC 6919) [2] = experiment: Minimal bactericidal concentration (MBC) against P. acnes; type: cell-based, Propionibacterium acnes; conditions: Cutibacterium acnes, ATCC6919; P. acnes 10^7 CFU/mL, in PBS, anaerobic conditions
IL-8 = experiment: P. acnes-induced IL-8 on human NHEKs; type: cell-based; conditions: Homo sapiens; NHEK, live P. acnes 10^7 CFU, 24 hours, ELISA; read-out: P. acnes-NHEK IL-8 Protein IC50
Description: Normal human epidermal keratinocytes (NHEKs) from neonatal donors were obtained from Thermo-Fisher (Cat No. C-001-5C). Cells were cultured in 96-well plates for 24 hours with EpiLife media (Cat No. MEPI500CA) supplemented with keratinocytes growth supplement (Cat No. S0015). On Day 2, media was removed and replaced with supplement-depleted medium for 24 hours. On Day 3, media was removed and cells were pre-treated with test materials ([…]) for 2 hours and later co-treated with test materials and live P. acnes (ATCC® 6919TM) at 10^7 CFU for 24 hours at 37° C. and 5% CO2. After incubation, cell media supernatants were harvested and used to measure pro-inflammatory cytokine levels (IL-8) using ELISA kits (BD Biosciences® #555244). Results were represented as percent of inhibition relative to untreated and P. acnes-only treated cells. IC50 values were determined by non-linear regression analysis using the four-parameter logistic equation.

[3] = Cutibacterium acnes, ATCC6919, 72 h, read-out: MIC

MIC (P. acnes (ATCC 6919) [1]; [3])	Structure (SMILES)	also measured
12 µg/mL (≈ 21.6 µM)	C/C(=C\CSCC(NC(=O)N1CC(O)CC1C(=O)O)C(=O)O)CCCC(C)CCCC(C)CCCC(C)C (centres unmarked) [BC]	
	CSCCC(NC(C)=O)C(=O)NC(CSC/C=C(\C)CCCC(C)CCCC(C)CCCC(C)C)C(=O)O (centres unmarked) [L]	MIC (P. acnes (ATCC 6919) [1]; 72 hours): >16 µg/mL
12 µg/mL (≈ 23.3 µM)	C/C(=C/CSC[C@H](NC(=O)N(C)CC(=O)O)C(=O)O)CCCC(C)CCCC(C)CCCC(C)C (stereo partly drawn) [Compound BI, (2R)-2-{[(carboxymethyl)(methyl)carbamoyl]amino}-3-{[(2Z)-3,7,11,15-tetramethylhexadec-2-en-1-yl]sulfanyl}propanoic acid]	
62 µg/mL (≈ 115 µM)	C/C(=C\CSCC(N/C(=N/C#N)N(C)CC(=O)O)C(=O)O)CCCC(C)CCCC(C)CCCC(C)C (centres unmarked) [W]	inhibition in vivo at 3 % strength (Balb/C mice): 22%
0.06 µg/mL	CCC[C@@H]1C[C@@H](C(=O)N[C@@H]([C@H]2O[C@H](SC)[C@H](O)[C@@H](O)[C@H]2O)[C@H](C)Cl)N(C)C1 [Clindamycin HCl, reference compound]	
6 µg/mL (≈ 10.6 µM)	C/C(=C\CSCC(Nc1ccnc(N(C)CC(=O)O)n1)C(=O)O)CCCC(C)CCCC(C)CCCC(C)C (centres unmarked) [BM]	MBC (P. acnes (ATCC 6919) [2]): > 62 µg/mL
< 0.2 µg/mL	C[C@H]1c2cccc(O)c2C(=O)C2=C(O)[C@]3(O)C(=O)C(C(N)=O)=C(O)[C@@H](N(C)C)[C@@H]3[C@@H](O)[C@@H]21 [Doxycycline, reference compound]	
6 µg/mL (≈ 10.6 µM)	C/C(=C\CSCC(NC(=O)c1ccc(O)c(C(=O)O)c1)C(=O)O)CCCC(C)CCCC(C)CCCC(C)C (centres unmarked) [H]	IC50 (IL-8): 0.02 µM; inhibition in vivo at 3 % strength (Balb/C mice): 14%
63 µg/mL (≈ 120 µM)	C/C(=C\CSC[C@H](NC(=O)N1CCC1C(=O)O)C(=O)O)CCCC(C)CCCC(C)CCCC(C)C (some centres unmarked) [AZ]	
> 125 µg/mL	C/C(=C\CSCC(NC(=O)N1CCCCC1)C(=O)O)CCCC(C)CCCC(C)CCCC(C)C (centres unmarked) [BD]	
> 125 µg/mL	C/C(=C\CSC(C)(C)C(Nc1ncc(C(=O)O)cn1)C(=O)O)CCCC(C)CCCC(C)CCCC(C)C (centres unmarked) [BP]	
16 µg/mL (≈ 28.8 µM)	CC(=O)NC(CC(C)C)C(=O)NC(CSC/C=C(\C)CCCC(C)CCCC(C)CCCC(C)C)C(=O)O (centres unmarked) [M]	
42 µg/mL (≈ 80.5 µM)	C/C(=C\CSCC(Nc1nccc(C(=O)O)n1)C(=O)O)CCCC(C)CCCC(C)CCCC(C)C (centres unmarked) [BG]	
50 µg/mL (≈ 90.1 µM)	C/C(=C\CSCC(NC(=O)N1CCC(C(=O)O)CC1)C(=O)O)CCCC(C)CCCC(C)CCCC(C)C (centres unmarked) [Y]	inhibition in vivo at 3 % strength (Balb/C mice): 0%
> 125 µg/mL	C/C(=C\CSc1ccc(C(=O)O)cn1)CCCC(C)CCCC(C)CCCC(C)C (centres unmarked) [BA]	
> 125 µg/mL	O=C(O)CN(CC(=O)O)C(=O)NC12CC3CC(CC(C3)C1)C2 [AY]	
23 µg/mL (≈ 41.5 µM)	C/C(=C\CSCC(NC(=O)N1CCCC(C(=O)O)C1)C(=O)O)CCCC(C)CCCC(C)CCCC(C)C (centres unmarked) [BE]	
> 125 µg/mL	CSCC(NC(=O)N(CC(=O)O)CC(=O)O)C(=O)O (centres unmarked) [AX]	
> 125 µg/mL	CC(C)=CCC/C(C)=C/CC/C(C)=C/CSCC(NC(=O)N(CC(=O)O)CC(=O)O)C(=O)O (centres unmarked) [AF]	
7 µg/mL (≈ 13.1 µM)	C/C(=C\CSC[C@H](Nc1ncc(C(=O)O)c(C)n1)C(=O)O)CCCC(C)CCCC(C)CCCC(C)C (some centres unmarked) [BL]	MBC (P. acnes (ATCC 6919) [2]): > 62 µg/mL
